The target in one experiment is human DGKα (Homo sapiens (Human), UniProt P23743). In words: biochemical. The note with it: detergent/lipid micelle substrate; read-out: DGKα IC50. In short, it runs like this:
(§1)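 Full-length human DGKα or DGKζ (C-terminal His tag, Sf9-expressed; 20 nM 4× stock) was preincubated 10 min at room temperature with PS/DAG octyl glucoside micelles in MOPS pH 7.5 buffer with MgCl2, CaCl2 and DTT. It was then started with ATP (300 uM addition) and run for 1 hr, with ADP-Glo luminescence read-out.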

Experiment [1] relates to Jurkat AP1-luciferase Reporter. Description: DGK AP1-Reporter Assay. It is filed as cell-based. The note with it: Homo sapiens, Jurkat. In short, it runs like this:
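Jurkat cells carrying a lentiviral AP1-luciferase reporter received 30 nl compound per well for 20 min at 37 °C and 5% CO2. They were then stimulated for 6 h with anti-CD3 solution at 0.4 μg/mL; reference wells received 4 μg/mL and unstimulated wells medium only. Readout was Steady-Glo luciferase luminescence (RLU).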

The test system of the next experiment is naïve human CD8 T cells. Description: CellTiter-Glo CD8 T Cell Proliferation Assay. Particulars: Homo sapiens, T-cell, CellTiter-Glo CD8 T cell proliferation, normalized; read-out: CD8 GLO normalized EC50. It is filed as cell-based. As for the experimental part: Frozen naïve human CD8 T cells were thawed in RPMI+10% FBS, incubated for 2 h in 37° C., and counted. The 384-well tissue culture plate was coated overnight at 4° C. with 20 μl anti-human CD3 at 0.1 μg/mL in plain RPMI, which was removed off the plate before 20 k/40 μl CD8 T cells with 0.5 μg/mL soluble anti-human CD28 were added to each well. The compounds were echoed to the cell plate immediately after the cells were plated. After 72 h incubation at 37° C. incubator, 10 μl CellTiter-glo reagent (Promega catalog number G7570) was added to each well. The plate was vigorously shaken for 5 mins, incubated at room temperature for another 15 mins and read on Envision for CD8 T cell proliferation. In analysis, 0.1 μg/mL anti-CD3 and 0.5 μg/mL anti-CD28 stimulated CD8 T cell signal was background.
On the technique in general: Cellular ATP, detected with luciferase, serves as a proxy for viable cell number.

The target in the next experiment is human DGKζ (Homo sapiens (Human), UniProt Q13574). In words: DGKζ assay (detergent/lipid micelle substrate). The class given is biochemical. The method in brief:
as §1

In a further experiment the test system is Human venous whole blood. Description: Human Whole Blood IFN-γ Assay. The class given is cell-based. The note with it: Homo sapiens. As for the experimental part: Human venous whole blood (22.5 μL per well), obtained from healthy donors, was pre-treated with compounds for one hour at 37° C. in a humidified 95% air/5% CO2 incubator. The blood was stimulated with 2.5 μL anti-human CD3 and anti-CD28 mAb at a final concentration of 1 μg/mL each for 24 hours at 37° C. IFN-γ in the supernatants was measured using AlphaLISA kit (Cat #AL217).

The test system of experiment [2] is OT-1 antigen-specific CD8+ T cells with MC38 tumor cells. In words: Murine Cytotoxic T Lymphocyte Assay (IFN-γ). The class given is cell-based, mouse. The note with it: Mus musculus, MC-38, read-out: msCTL INF-γ IC50, murine CTL IFN-γ (table title reads INF-γ Whole Blood Normalized Agonist EC50). From the text: An antigen-specific cytolytic T-cell (CTL) assay was developed to evaluate functionally the ability of DGKα and DGKζ inhibitors to enhance effector T cell mediated tumor cell killing activity. CD8+ T-cells isolated from the OT-1 transgenic mouse recognize antigen presenting cells, MC38, that present the ovalbumin derived peptide […]. Recognition of the cognate antigen initiates the cytolytic activity of the OT-1 antigen-specific CD8+ T cells.
Functional CTL cells were generated as follows: OT-1 splenocytes from 8-12 week old mice were isolated and expanded in the presence of the […] peptide at 1 μg/mL and mIL2 at 10 U/mL. After three days, fresh media with mIL2 U/mL was added. On day 5 of the expansion, the CD8+ T cells were isolated and ready for use. Activated CTL cells may be stored frozen for 6 months. […] The cells were washed (3×) with fresh media to remove excess peptide. Finally, CTL cells that were pretreated with DGK inhibitors for 1 hour in a 96-well U bottom plate were combined with the antigen loaded MC38 tumor cells at a 1:10 ratio. The cells were then spun at 700 rpm for 5 min and placed in an incubator overnight at 37° C. After 24 hours, the supernatant was collected for analysis of IFN-γ cytokine levels by AlphaLisa purchased from Perkin Elmer.

Experiment [3] concerns pre-activated CD4 T cells and Raji cells. Description: Raji CD4 T Cell IL2 Assay. It is filed as cell-based. Particulars: Homo sapiens, Raji.
The mark [4] stands for this setting: read-out: API-Luciferase Reporter IC50, Table 3.
Setting [5] is: read-out: DGKAP1 Lucif Reporter IC50, Table 4.
Where [6] appears, read: detergent/lipid micelle substrate, read-out: DGKζ IC50.

The structures appear in SMILES notation. Like-named read-outs stand apart in the source and are kept apart here. Some results are limits rather than exact numbers.

Chain of human DGKα (P23743 other isoform, or with tags, fused parts or gaps): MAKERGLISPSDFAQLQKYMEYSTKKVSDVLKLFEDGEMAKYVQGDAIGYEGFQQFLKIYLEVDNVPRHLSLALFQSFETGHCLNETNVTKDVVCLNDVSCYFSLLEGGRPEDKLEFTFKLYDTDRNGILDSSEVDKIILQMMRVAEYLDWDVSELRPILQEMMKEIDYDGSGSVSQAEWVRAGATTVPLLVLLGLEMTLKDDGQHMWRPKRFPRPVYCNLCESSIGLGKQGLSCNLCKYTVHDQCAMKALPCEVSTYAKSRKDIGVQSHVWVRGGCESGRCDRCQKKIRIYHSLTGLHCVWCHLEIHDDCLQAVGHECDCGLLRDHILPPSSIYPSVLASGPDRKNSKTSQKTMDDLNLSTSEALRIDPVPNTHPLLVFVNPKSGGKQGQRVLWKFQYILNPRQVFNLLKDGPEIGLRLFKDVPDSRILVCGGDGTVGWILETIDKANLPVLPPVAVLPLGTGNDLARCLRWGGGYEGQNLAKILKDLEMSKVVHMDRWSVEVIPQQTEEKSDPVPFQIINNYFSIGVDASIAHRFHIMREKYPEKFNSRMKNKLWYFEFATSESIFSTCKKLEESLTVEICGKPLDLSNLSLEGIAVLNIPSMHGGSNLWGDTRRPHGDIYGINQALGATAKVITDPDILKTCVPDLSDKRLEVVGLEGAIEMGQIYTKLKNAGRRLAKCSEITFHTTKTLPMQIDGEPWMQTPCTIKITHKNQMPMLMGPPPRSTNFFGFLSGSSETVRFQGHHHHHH
Chain of human DGKζ (Q13574 other isoform, or with tags, fused parts or gaps): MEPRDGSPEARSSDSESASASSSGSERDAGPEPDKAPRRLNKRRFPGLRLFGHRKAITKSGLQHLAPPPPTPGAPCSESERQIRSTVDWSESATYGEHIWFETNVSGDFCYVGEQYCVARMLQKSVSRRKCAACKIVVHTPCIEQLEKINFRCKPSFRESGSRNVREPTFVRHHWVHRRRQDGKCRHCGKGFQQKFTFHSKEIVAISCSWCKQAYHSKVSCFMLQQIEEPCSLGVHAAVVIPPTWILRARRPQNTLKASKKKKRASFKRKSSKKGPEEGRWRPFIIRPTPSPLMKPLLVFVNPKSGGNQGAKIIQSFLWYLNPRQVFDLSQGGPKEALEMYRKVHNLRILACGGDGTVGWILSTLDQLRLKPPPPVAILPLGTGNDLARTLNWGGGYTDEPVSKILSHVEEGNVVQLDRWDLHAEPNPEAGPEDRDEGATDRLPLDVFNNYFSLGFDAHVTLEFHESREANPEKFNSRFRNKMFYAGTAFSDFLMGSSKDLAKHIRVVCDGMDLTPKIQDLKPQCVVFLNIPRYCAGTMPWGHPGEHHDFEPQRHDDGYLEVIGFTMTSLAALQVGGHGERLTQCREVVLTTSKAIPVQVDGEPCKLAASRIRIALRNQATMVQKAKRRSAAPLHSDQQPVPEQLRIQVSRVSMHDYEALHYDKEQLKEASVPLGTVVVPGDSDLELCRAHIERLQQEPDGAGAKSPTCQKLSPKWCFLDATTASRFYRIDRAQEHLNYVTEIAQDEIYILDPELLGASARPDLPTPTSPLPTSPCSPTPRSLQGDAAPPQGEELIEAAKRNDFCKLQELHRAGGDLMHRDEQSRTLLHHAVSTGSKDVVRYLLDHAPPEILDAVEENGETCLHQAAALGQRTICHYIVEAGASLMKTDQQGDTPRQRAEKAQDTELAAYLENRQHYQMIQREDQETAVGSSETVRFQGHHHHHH

With `COc1ccccc1C(c1ccc(F)cc1)N1CCN(c2c(C#N)c(=O)n(CC3CC3)c3ccc(Br)nc23)CC1` (racemic) [Example 158, 6-bromo-1-(cyclopropylmethyl)-4-(4-((4-fluorophenyl)(2-methoxyphenyl)methyl)piperazin-1-yl)-2-oxo-1,2-dihydro-1,5-naphthyridine-3-carbonitrile], the IC50 at human DGKα is more than 240 µM; in experiment [1] (setting [4]), 4.59 µM; in experiment [1] (setting [5]) it was 10 µM; on human DGKζ (setting [6]) it was more than 240 µM. Besides, in the experiment on naïve human CD8 T cells, the EC50 was 0.92 µM.
With `CC(c1ccc(F)cc1)N1CCN(c2c(C#N)c(=O)n(CC3CC3)c3ccc(Br)nc23)CC1` (racemic) [Example 162, 6-bromo-1-(cyclopropylmethyl)-4-(4-(1-(4-fluorophenyl)ethyl)piperazin-1-yl)-2-oxo-1,2-dihydro-1,5-naphthyridine-3-carbonitrile], the IC50 at human DGKα is 160 µM; in experiment [1] (setting [4]) it was 4.81 µM; in experiment [1] (setting [5]), 10 µM; against human DGKζ (DGKζ IC50, detergent/lipid micelle substrate), more than 240 µM. For the same molecule, in the experiment on naïve human CD8 T cells, the EC50 turned out to be 10 µM.
In the case of `COCCn1c(=O)c([N+](=O)[O-])c(N2CCN(C(c3ccc(F)cc3)c3ccccc3O)CC2)c2nc(C#N)ccc21` (stereo not shown) [Example 145, 8-(4-((4-fluorophenyl)(2-hydroxyphenyl)methyl)piperazin-1-yl)-5-(2-methoxyethyl)-7-nitro-6-oxo-5,6-dihydro-1,5-naphthyridine-2-carbonitrile], the EC50 was 1.87 µM with Human venous whole blood (human whole blood, anti-CD3 plus anti-CD28 as baseline, 3 μM Example 40 co-stimulation as 100% activation, read-out: INF-γ Whole Blood Normalized Agonist EC50) and 1.33 µM in the experiment with Human venous whole blood (read-out: INF-γ Whole Blood Agonist EC50). The IC50 at human DGKα was 30 µM; in experiment [1] (setting [4]), 0.57 µM; in experiment [2], 0.46 µM; on human DGKζ (setting [6]), 2.3 µM.
Turning to `COc1ccc2c(c1)C(N1CCN(c3c(C#N)c(=O)n(CC#N)c4ccc(Br)nc34)CC1)CC2` (stereo not shown) [Example 156, 6-bromo-1-(cyanomethyl)-4-(4-(6-methoxy-2,3-dihydro-1H-inden-1-yl)piperazin-1-yl)-2-oxo-1,2-dihydro-1,5-naphthyridine-3-carbonitrile], the IC50 is 170 µM at human DGKα; more than 100 µM in experiment [3]; 10 µM in experiment [1] (setting [4]); 10 µM in experiment [1] (setting [5]); 140 µM on human DGKζ (setting [6]). The EC50 with naïve human CD8 T cells came to 0.14 µM.

What is called IC50 is the concentration that gives 50% inhibition. A word on the EC50: it is the midpoint of the concentration-response curve.

For the origin of these results see patent US11866430B2, “Naphthyridinone compounds useful as T cell activators” (priority 2018, dated 2024).
